Where two headings read alike, the source gives them in different places.
Columns and labels:
Format in all cases: cell-based
MDA-MB-231 cells = assay: MDA-MB-231 cell proliferation assay (Cell-Titer-Glo, 120 hr); conditions: for MDA-MB 231 Cell Prolif. 120 hr YMin (%): minimal percent of DMSO control observed; for EC50: read-out: MDA-MB 231 Cell Prolif. 120 hr EC50
How it was run: (§1)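 MKN45 (400/well) and MDA-MB-231 (800/well) cells in RPMI with 10% FBS were exposed to 10-point half-log doses from 1 or 10 uM (0.1% DMSO) for 120 h at 37 °C. Viability was read by CellTiter-Glo luminescence. EC50 came from blank-subtracted, %DMSO four-parameter fits, with Ymin-obs as the lowest %DMSO observed.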

WEE1 = molecular target: T1, WEE1 (Homo sapiens, UniProt P30291+Q96SW2); assay: WEE1-ePL degradation assay (293T-LentiX, InCELL Hunter luminescence, 4 hr); conditions: for DC50: LentiX-HEK293T cells expressing WEE1-ePL, 4 hr incubation, read-out: 293T-LentiX WEE1-ePL Degradation 4 hr EC50; for 293T-LentiX WEE1-ePL Degradation 4 hr YMin (%): lower limit of fit, % of DMSO control signal remaining
T1 construct: C-terminal ePL-tagged (DiscoverX, Fremont, CA) full-length WEE1 expression construct; expressed in transfected cells; host or cells: LentiX-HEK293T (Invitrogen), lentivirally transduced; the cells also over-express GSPT1-GN
T1 sequence (P30291 whole entry): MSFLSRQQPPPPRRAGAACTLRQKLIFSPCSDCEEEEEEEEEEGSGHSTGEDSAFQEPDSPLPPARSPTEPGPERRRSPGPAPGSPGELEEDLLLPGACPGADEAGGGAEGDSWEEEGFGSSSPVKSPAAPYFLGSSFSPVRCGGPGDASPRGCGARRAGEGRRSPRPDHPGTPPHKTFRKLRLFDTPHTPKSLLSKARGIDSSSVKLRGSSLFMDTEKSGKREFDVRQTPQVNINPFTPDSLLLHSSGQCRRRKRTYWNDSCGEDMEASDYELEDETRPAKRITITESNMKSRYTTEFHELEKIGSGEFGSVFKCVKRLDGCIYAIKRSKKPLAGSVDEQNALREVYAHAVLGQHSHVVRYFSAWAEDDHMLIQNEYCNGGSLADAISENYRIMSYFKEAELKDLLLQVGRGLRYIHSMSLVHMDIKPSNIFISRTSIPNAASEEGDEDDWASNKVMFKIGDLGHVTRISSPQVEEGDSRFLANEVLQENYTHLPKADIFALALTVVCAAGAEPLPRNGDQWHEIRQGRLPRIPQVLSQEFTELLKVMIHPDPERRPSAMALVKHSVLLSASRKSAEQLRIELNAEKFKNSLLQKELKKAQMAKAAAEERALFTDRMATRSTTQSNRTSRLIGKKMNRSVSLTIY
T1 sequence (Q96SW2 whole entry): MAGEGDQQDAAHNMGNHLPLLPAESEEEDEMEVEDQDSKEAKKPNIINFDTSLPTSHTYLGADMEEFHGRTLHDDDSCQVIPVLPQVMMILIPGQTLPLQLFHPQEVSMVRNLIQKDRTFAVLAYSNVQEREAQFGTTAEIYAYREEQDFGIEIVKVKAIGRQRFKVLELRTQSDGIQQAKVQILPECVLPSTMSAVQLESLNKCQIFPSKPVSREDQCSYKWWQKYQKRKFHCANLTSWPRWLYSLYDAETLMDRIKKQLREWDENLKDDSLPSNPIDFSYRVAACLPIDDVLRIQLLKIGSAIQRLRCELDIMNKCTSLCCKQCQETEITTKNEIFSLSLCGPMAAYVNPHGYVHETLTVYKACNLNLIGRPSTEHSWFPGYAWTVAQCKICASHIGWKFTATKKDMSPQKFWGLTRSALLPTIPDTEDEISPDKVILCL
T1 sequence (Q16531 whole entry partner): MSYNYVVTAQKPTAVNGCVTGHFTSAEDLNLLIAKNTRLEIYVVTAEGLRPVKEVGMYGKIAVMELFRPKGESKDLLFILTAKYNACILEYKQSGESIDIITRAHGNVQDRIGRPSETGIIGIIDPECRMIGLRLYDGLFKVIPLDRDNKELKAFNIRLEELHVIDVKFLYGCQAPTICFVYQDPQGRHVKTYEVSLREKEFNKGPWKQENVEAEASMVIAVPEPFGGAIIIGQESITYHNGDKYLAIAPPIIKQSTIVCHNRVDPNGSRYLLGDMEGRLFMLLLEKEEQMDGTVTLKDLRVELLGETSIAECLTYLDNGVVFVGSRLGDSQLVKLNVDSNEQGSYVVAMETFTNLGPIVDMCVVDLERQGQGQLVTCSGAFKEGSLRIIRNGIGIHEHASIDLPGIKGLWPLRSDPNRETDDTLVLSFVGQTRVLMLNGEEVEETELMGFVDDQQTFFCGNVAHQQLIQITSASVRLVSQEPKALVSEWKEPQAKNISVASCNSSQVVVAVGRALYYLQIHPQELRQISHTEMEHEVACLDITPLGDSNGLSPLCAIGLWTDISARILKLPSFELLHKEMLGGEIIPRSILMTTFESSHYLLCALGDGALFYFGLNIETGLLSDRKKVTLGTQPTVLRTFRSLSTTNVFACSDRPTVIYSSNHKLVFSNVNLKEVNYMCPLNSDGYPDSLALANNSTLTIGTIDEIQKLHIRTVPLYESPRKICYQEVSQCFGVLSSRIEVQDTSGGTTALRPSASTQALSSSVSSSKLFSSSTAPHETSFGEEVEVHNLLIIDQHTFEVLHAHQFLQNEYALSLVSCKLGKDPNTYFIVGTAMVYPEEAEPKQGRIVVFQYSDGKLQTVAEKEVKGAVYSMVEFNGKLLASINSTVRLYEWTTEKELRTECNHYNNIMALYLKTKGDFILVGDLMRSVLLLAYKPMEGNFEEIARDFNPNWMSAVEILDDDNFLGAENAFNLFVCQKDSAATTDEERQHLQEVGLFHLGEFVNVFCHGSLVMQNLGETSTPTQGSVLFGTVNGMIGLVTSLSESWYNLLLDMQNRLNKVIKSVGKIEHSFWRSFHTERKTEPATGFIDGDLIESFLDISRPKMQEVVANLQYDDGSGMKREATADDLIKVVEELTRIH
How it was run: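 LentiX-HEK293T cells expressing C-terminally ePL-tagged full-length WEE1 plus non-degradable GSPT1-GN (G575N, N-terminal 158 aa truncated). Treated 4 h at 37 °C with a 10-point, 3-fold series from 1 or 10 µM, then read by InCELL Hunter luminescence. EC50 from four-parameter logistic fit, Ymax set by DMSO control.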

MKN45 cells = assay: MKN45 cell proliferation assay (Cell-Titer-Glo, 120 hr); conditions: for MKN45 Cell Prolif. 120 hr YMin (%): minimal percent of DMSO control observed; for EC50: read-out: MKN45 Cell Prolif. 120 hr EC50
How it was run: as §1

[1] = Homo sapiens, MDA-MB-231, 120 h

SMILES	EC50 (MDA-MB-231 cells) [nM]	DC50 (WEE1) [nM]	293T-LentiX WEE1-ePL Degradation 4 hr YMin (%) (WEE1)	EC50 (MKN45 cells) [nM]	EC50 (MDA-MB-231 cells; [1]) [nM]	EC50 (MKN45 cells; Homo sapiens, MKN-45, 120 h) [nM]	MDA-MB 231 Cell Prolif. 120 hr YMin (%) (MDA-MB-231 cells)	MKN45 Cell Prolif. 120 hr YMin (%) (MKN45 cells)
CN1CC2(CC(c3ccc4cc(CN5CC[C@H](Oc6ccc7c(c6)CN([C@H]6CCC(=O)NC6=O)C7=O)C5)ccc4n3)CO2)C1 (single isomer, unassigned) [Example 2, (S)-3-(5-(((S)-1-((2-((S*)-2-methyl-5-oxa-2-azaspiro[3.4]octan-7-yl)quinolin-6-yl)methyl)pyrrolidin-3-yl)oxy)-1-oxoisoindolin-2-yl)piperidine-2,6-dione]	234	339	33.4	53			73.8	28.1
CN1CC[C@]2(C[C@@H](c3ccc4cc(CN5CC[C@H](Oc6ccc7c(c6)CN([C@H]6CCC(=O)NC6=O)C7=O)C5)ccc4n3)CO2)C1 (single isomer, unassigned) [Example 4]		14	30.9		146	23	61.3	12.6
COC[C@@H]1CN(Cc2ccc3nc(N4C[C@H]5CCO[C@H]5C4)ncc3c2)C[C@H]1Oc1ccc2c(c1)CN([C@H]1CCC(=O)NC1=O)C2=O (single isomer, unassigned) [Example 8, (S)-3-(5-(((3S,4S)-1-((2-((3aR*,6aR*)-hexahydro-5H-furo[2,3-c]pyrrol-5-yl)quinazolin-6-yl)methyl)-4-(methoxymethyl)pyrrolidin-3-yl)oxy)-1-oxoisoindolin-2-yl)piperidine-2,6-dione]		4	27.5		105	6	31.9	10.0
O=C1CC[C@H](N2Cc3cc(O[C@H]4CCN(Cc5cc(F)c6nc(N7C[C@H]8CCO[C@H]8C7)ncc6c5)C4)ccc3C2=O)C(=O)N1 (single isomer, unassigned) [Example 9, (S)-3-(5-(((S)-1-((8-fluoro-2-((3aR*,6aR*)-hexahydro-5H-furo[2,3-c]pyrrol-5-yl)quinazolin-6-yl)methyl)pyrrolidin-3-yl)oxy)-1-oxoisoindolin-2-yl)piperidine-2,6-dione]		6	32.4		366	11	45.1	11.7
O=C1CCC(N2C(=O)c3ccc(O[C@H]4CCN(Cc5cc(F)c6nc(C7CCOCC7)ccc6c5)C4)cc3C2=O)C(=O)N1 (single isomer, unassigned) [Example 11, 2-((S*)-2,6-dioxopiperidin-3-yl)-5-(((S)-1-((8-fluoro-2-(tetrahydro-2H-pyran-4-yl)quinolin-6-yl)methyl)pyrrolidin-3-yl)oxy)isoindoline-1,3-dione]		4	30.4		525	33	53.2	12.1
COC[C@@H]1CN(Cc2ccc3nc(N4C[C@@H]5CCO[C@@H]5C4)ccc3c2)C[C@H]1Oc1ccc2c(c1)CN([C@H]1CCC(=O)NC1=O)C2=O (single isomer, unassigned) [Example 16, (S)-3-(5-(((3S,4S)-1-((2-((3aS*,6aS*)-hexahydro-5H-furo[2,3-c]pyrrol-5-yl)quinolin-6-yl)methyl)-4-(methoxymethyl)pyrrolidin-3-yl)oxy)-1-oxoisoindolin-2-yl)piperidine-2,6-dione]			29.6		48	2	43.7	10.8

Second part, led by results:

EC50 (MDA-MB-231 cells) [nM]	DC50 (WEE1) [nM]	293T-LentiX WEE1-ePL Degradation 4 hr YMin (%) (WEE1)	EC50 (MKN45 cells) [nM]	EC50 (MDA-MB-231 cells; [1]) [nM]	EC50 (MKN45 cells; Homo sapiens, MKN-45, 120 h) [nM]	SMILES	MDA-MB 231 Cell Prolif. 120 hr YMin (%) (MDA-MB-231 cells)	MKN45 Cell Prolif. 120 hr YMin (%) (MKN45 cells)
	1	32.3		12	1	COC[C@@H]1CN(Cc2ccc3nc(N4C[C@H]5CCO[C@H]5C4)ccc3c2)C[C@H]1Oc1ccc2c(c1)CN([C@H]1CCC(=O)NC1=O)C2=O (single isomer, unassigned) [Example 5, (S)-3-(5-(((3S,4S)-1-((2-((3aR*,6aR*)-hexahydro-5H-furo[2,3-c]pyrrol-5-yl)quinolin-6-yl)methyl)-4-(methoxymethyl)pyrrolidin-3-yl)oxy)-1-oxoisoindolin-2-yl)piperidine-2,6-dione]	45.5	10.6
	2	27.4		63	5	O=C1CC[C@H](N2Cc3cc(O[C@@H]4CN(Cc5ccc6nc(N7C[C@H]8CCO[C@H]8C7)ccc6c5)CC4(F)F)ccc3C2=O)C(=O)N1 (single isomer, unassigned) [Example 6, (S)-3-(5-(((R)-4,4-difluoro-1-((2-((3aR*,6aR*)-hexahydro-5H-furo[2,3-c]pyrrol-5-yl)quinolin-6-yl)methyl)pyrrolidin-3-yl)oxy)-1-oxoisoindolin-2-yl)piperidine-2,6-dione]	62.4	11.8
	1	31.9		74	5	O=C1CC[C@H](N2Cc3cc(O[C@H]4CCN(Cc5cc(F)c6nc(N7C[C@H]8CCO[C@H]8C7)ccc6c5)C4)ccc3C2=O)C(=O)N1 (single isomer, unassigned) [Example 7, (S)-3-(5-(((S)-1-((8-fluoro-2-((3aR*,6aR*)-hexahydro-5H-furo[2,3-c]pyrrol-5-yl)quinolin-6-yl)methyl)pyrrolidin-3-yl)oxy)-1-oxoisoindolin-2-yl)piperidine-2,6-dione]	64.0	13.7
	2	27.8		70	2	COC[C@@H]1CN(Cc2cc(F)c3nc(N4C[C@H]5CCO[C@H]5C4)ncc3c2)C[C@H]1Oc1ccc2c(c1)CN([C@H]1CCC(=O)NC1=O)C2=O (single isomer, unassigned) [Example 10, (S)-3-(5-(((3S,4S)-1-((8-fluoro-2-((3aR*,6aR*)-hexahydro-5H-furo[2,3-c]pyrrol-5-yl)quinazolin-6-yl)methyl)-4-(methoxymethyl)pyrrolidin-3-yl)oxy)-1-oxoisoindolin-2-yl)piperidine-2,6-dione]	24.6	10.6
	1	22.1		61	3	COC[C@@H]1CN(Cc2cc(F)c3nc(N4C[C@@H]5CCO[C@@H]5C4)ncc3c2)C[C@H]1Oc1ccc2c(c1)CN([C@H]1CCC(=O)NC1=O)C2=O (single isomer, unassigned) [Example 13, (S)-3-(5-(((3S,4S)-1-((8-fluoro-2-((3aS*,6aS*)-hexahydro-5H-furo[2,3-c]pyrrol-5-yl)quinazolin-6-yl)methyl)-4-(methoxymethyl)pyrrolidin-3-yl)oxy)-1-oxoisoindolin-2-yl)piperidine-2,6-dione]	37.3	11.9
	3	31.8		63	6	O=C1CC[C@H](N2Cc3cc(O[C@@H]4CN(Cc5cc(F)c6nc(N7C[C@H]8CCO[C@H]8C7)ccc6c5)CC4(F)F)ccc3C2=O)C(=O)N1 (single isomer, unassigned) [Example 14, (S)-3-(5-(((R)-4,4-difluoro-1-((8-fluoro-2-((3aR*,6aR*)-hexahydro-5H-furo[2,3-c]pyrrol-5-yl)quinolin-6-yl)methyl)pyrrolidin-3-yl)oxy)-1-oxoisoindolin-2-yl)piperidine-2,6-dione]	34.4	10.2
	2	28.4		73	6	O=C1CC[C@H](N2Cc3cc(O[C@@H]4CN(Cc5cc(F)c6nc(N7C[C@@H]8CCO[C@@H]8C7)ccc6c5)CC4(F)F)ccc3C2=O)C(=O)N1 (single isomer, unassigned) [Example 15, (S)-3-(5-(((R)-4,4-difluoro-1-((8-fluoro-2-((3aS*,6aS*)-hexahydro-5H-furo[2,3-c]pyrrol-5-yl)quinolin-6-yl)methyl)pyrrolidin-3-yl)oxy)-1-oxoisoindolin-2-yl)piperidine-2,6-dione]	31.4	8.8

Reference: US20250197374A1, “WEE1 DEGRADING COMPOUNDS AND USES THEREOF” (BRISTOL-MYERS SQUIBB COMPANY, priority 2023, published 2025)
